# Laboratory results: patent US20090233999A1, “COMPOSITIONS AND THERAPEUTIC METHODS INVOLVING ISOFLAVONES AND ANALOGUES THEREOF” (NOVOGEN RESEARCH PTY LTD, priority 1999, published 2009)
# Columns and labels:
# P-cadherin = experiment: UVB psoriasis model: immunohistochemical detection of P-cadherin; assay type: in vivo, mouse; details: 20 μM topical
# Protocol: Groups of three Skh:hr-1 mice were exposed to 3×MEdD of UVB radiation, with and without topical treatment with 20 μM Cpd. 18, and were euthanased before and at 24, 48, 72 and 96 h after irradiation, and mid-dorsal skin samples were taken for histological fixation. The samples were fixed for 6 h in Histochoice (Amresco Solon, Ohio), then processed overnight in an automated formalin-ethanol-based system (Tissue Tek VIP; Bayer Diagnostics, Ferntree Gully, Australia) and embedded into paraffin blocks. Sections of 4 μm were cut onto silane-coated slides, de-waxed and rehydrated using xylene followed by graded aqueous ethanol solutions to PBS. Endogenous peroxidase activity of the sections was quenched with 3% H2O2 in methanol for 10 min at room temperature and washed 3 times with PBS. The sections were then blocked with 10% skim milk in PBS for 40 min at room temperature. […]
# The stained sections were examined by light microscopy at 20× magnification and images were captured digitally with a Sony Hyper HAD colour video camera (Sony, Tokyo, Japan). Stain intensity was analysed using a Leica Q500 MC image processing and analysis system (Leica, Cambridge, UK) and semi-quantitated in arbitrary image analysis units as the average intensity of 15 sequential fields across the skin section for each of 3 mice per treatment group. […]
# [1] = tested on: TNFα, IL-6 and P-cadherin mRNAs; experiment: UVB psoriasis model: RT-PCR of TNF-α, IL-6 and P-cadherin mRNAs in skin; assay type: in vivo, mouse; details: 20 μM lotion topical at 0, 1 and 2 h post-irradiation
# From the text: Inbred, 6-8 weeks of age female C57/BL6, C3H/HeN and Skh:hr-1 (hairless) mice were fed normal stock rodent rations and tap water ad libitum. One day prior to UVB irradiation, the dorsal hair of C57/BL6 and C3H/HeN mice was removed by clipping. A single UVB tube (Phillips TL-40W/12 RS, Eindhoven, The Netherlands) emitting a spectrum of 280-365 nm with a peak emission at 310 nm, was used as the light source for the experiments. The radiation was filtered through a sheet of 0.125 mm cellulose acetate (Grafix Plastics, OH, USA) to block wavelengths below 290 nm. Irradiance was measured with an IL 1500 radiometer (International Light Inc. Newburyport, Mass.) with a UVB detector (SEE 240/UVB) calibrated to the spectral output, and recorded as 1.71×10-4 W/cm2. Groups of three female C57/BL6 and C3H/HeN mice were exposed unrestrained in their cages to 7.24 kJ/m2 UVB radiation equal to 3× the minimal erythemal dose (MED) in these haired mice (fur clipped), an exposure of approximately 70 min. Control mice were clipped of fur in the same manner but were not exposed to UVB irradiation. Groups of 3 Skh:hr-1 mice received 3.59 kJ/m2 of UVB, which is equal to 3×MED on hairless mouse skin. Temperature under the radiation source was stabilised during the exposures with surrounding curtains and an electric fan.
# Cpd. […]
compound,measurement,setting,value
"COc1ccc(C2=Cc3ccc(O)cc3OC2)cc1OC [Cpd. 18, 7-Hydroxy-3′,4′-dimethoxyisoflav-3-ene]","P-cadherin expression in the skin, treatment alone",P-cadherin; without UVB,no effect
same,reduction of UVB-induced P-cadherin positive cells,"P-cadherin; 72 h, Skh:hr-1",approximately 50%
same,"production of TNFα, IL-6 and P-cadherin mRNAs post-UVB",[1],markedly reduced
